Consider one molecule from patent US8580789B2, “Treating glaucoma” (The Cleveland Clinic Foundation, priority 2007, dated 2013).

The test system of experiment [1] is optic nerve/lamina cribrosa complex. Briefly: Photographic circumferential strain analysis during IOP elevation, ON/LC. Details: species or system porcine. The following applies: Group 3; GTA on PS only; IOP 2-4 to 80 mmHg. The method, then: Eighteen porcine globes were divided evenly into 3 groups. The optic nerves were transected to expose the ON/LC, and each globe was infused through an in-line pressure transducer for direct IOP control. Surface wave velocity, a non-destructive measure of tissue stiffness, was measured across the ON/LC and PS before and after collagen crosslinking at IOP of 10 and 30 mmHg (groups 1 and 2) and at each globe's preinflation IOP and 80 mmHg (group 3). In group 3, papillary strain was measured by analyzing the displacement of fiducial marks immediately adjacent to the ON/LC using digital photography.
In group 3 (n=6), the same procedure described for group 2 was implemented with the following exceptions. First, four fiducial ink marks were placed in each quadrant of the PS immediately adjacent to the ON/LC prior to measurement. High-resolution (7.1 megapixel) digital photos were then taken at both low and high IOP before and after crosslinking. The vertical and horizontal distances between the outer extent of the ink marks and the outer margins of the optic nerve were measured in Photoshop (Adobe Systems, Inc., San Jose, Calif.), and the centripetal displacement of the fiducial marks (Δ1) was divided by the initial distance between the marks (10) to yield dimensionless indicators of circumferential strain (ζ=Δ1/10) in the peripapillary sclera and ON/LC, respectively. Second, measurements were acquired at each eye's pre-inflation pressure (between 2 to 4 mmHg) and at 80 mmHg to ensure that measurable changes in SWV and ON/LC geometry would be generated in at least one experimental group. As in group 2, the peripapillary sclera was selectively exposed to GTA and post-crosslinking measurements were repeated at low and high IOP. Same-eye statistical comparisons of wave velocity and strain were performed with paired student's t-tests.

A further experiment concerns porcine sclera. Particulars: scleral strips; 1 hour glutaraldehyde, 5 days glyceraldehydes, 30 minutes UVA for riboflavin/UVA; cited from earlier work.
Another experiment concerns human sclera. The following applies: scleral strips; 1 hour glutaraldehyde, 5 days glyceraldehydes, 30 minutes UVA for riboflavin/UVA; cited from earlier work.
In a further experiment the test system is peripapillary sclera. Briefly: Estimate of PS ring elastic (secant) modulus by LaPlace equation and measured strain. More on the design: species or system porcine. The text has this: By a similar analysis of strain across the ON in the same eyes, the pressure-induced change in ON diameter was 10.5±3.9% horizontally and 9.4±6.5% vertically prior to crosslinking. The combined vertical and horizontal strain averaged 7.3±4.4% across the PS ring and 10.2±5.4% across the ON/LC region alone (p=0.22). […] The native stiffness value compares favorably to the porcine scleral modulus of 500 kPa measured by Pierscionek B K, et al., Br J Opthalmol.; 91(6):801-803 (2007) particularly since their measurement was obtained at a lower peak pressure (50 mmHg) and was obtained from the entire sclera, which incorporates the thinner and effectively more elastic sclera anterior to the posterior pole (Olsen T W, et al., Invest Opthalmol Vis Sci; 43(8):2529-2532 (2002)).
The elastic modulus (E) of peripapillary sclera (PS) in Group 3 was estimated before and after crosslinking. First, measured PS strain was […] the circumferential stress as derived from the LaPlace equation, σ=IOP×R/2t, where σ indicates the circumferential stress as a function of IOP, scleral radius of curvature (R), and sclera thickness (t). […]

`O=CCCCC=O` [GTA, glutaraldehyde]: in experiment [1], the “Average Circumferential Strain of ON/LC with IOP elevation, Post-Crosslinking Mean ± SD” value is listed as 0.0 ± 0.0%; the “Horizontal Circumferential Strain of ON/LC with IOP elevation, Post-Crosslinking Mean ± SD” value amounted to 0.0 ± 0.0%; the “Vertical Circumferential Strain of ON/LC with IOP elevation, Post-Crosslinking Mean ± SD” value is 0.0 ± 0.0%. For the same molecule, in the experiment with porcine sclera, the “Rise in porcine scleral stress (rigidity)” value was 8 ×. In the experiment with human sclera, the “Rise in human scleral stress (rigidity)” value is recorded as 122%. Moreover, the “PS ring elastic modulus after crosslinking (estimate)” value with peripapillary sclera (Group 3, GTA, stress increment 4 to 80 mmHg divided by crosslinked strain) is given as 16.1 MPa. For the same molecule, in the experiment with peripapillary sclera (glutaraldehyde-mediated crosslinking, estimate), the “Increase in stiffness (elastic modulus) of peripapillary sclera with crosslinking” value is listed as approximately 20 fold.
